The source of these data is patent US20220098184A1, “SOLID DISPERSION FORMULATIONS OF AN FXR AGONIST” (Terms Pharmaceuticals, Inc., priority 2020, published 2022).

Data set [1] can be described thus: Solubility study in phosphate buffer (pH=6.8), agitated at 37° C., filtrate measured by UV-vis. Type of data set: physicochemical. The note with it: phosphate buffer pH 6.8, 37° C. On the procedure: Compound I, Compound U/Kollidon® VA 64 solid dispersion prepared according to Example 1, and Compound U/Soluplus® solid dispersion prepared according to Example 1 were dissolved in phosphate buffer (pH=6.8) and the resulting mixtures were agitated at 37° C. Samples were taken at 15 minutes, 30 minutes, 60 minutes, 120 minutes, 4 hours, 8 hours, and 24 hours.

Data set [2] can be described thus: Tissue distribution of Compound I (liver vs other tissues). The note with it: liver relative to plasma, kidney, lungs, heart, and skin, read-out: Concentration in the liver relative to other tissues. Type of data set: in vivo.
Data set [3] is described as follows: BCS classification / aqueous solubility. Type of data set: physicochemical.
A short description of data set [4]: Phase 1 randomized, open-label study in healthy subjects (PK, safety and tolerability). Type of data set: in vivo, human. The note with it: all treatment groups. On the procedure: A Phase 1 randomized, open-label study was conducted in 16 healthy subjects. PK samples of Compound I were obtained up to 72 hours after single oral administration of: 1) 5-mg strength and 25-mg strength tablets (prepared according to Example 3) in 16 fasted subjects; 2) 25-mg strength capsule (containing 25 mg Compound I not in a solid dispersion) in 8 fasted subjects; and 3) 5-mg strength tablet (prepared according to Example 3) in 8 subjects after a high-fat, high calorie meal. Safety and tolerability of the tablets and capsule were also assessed.

As for `Cn1cc(C(=O)O)c2ccc(N3CCC(OCc4c(-c5c(Cl)cccc5Cl)noc4C4CC4)CC3)cc21` [Compound I, 6-(4-((5-cyclopropyl-3-(2,6-dichlorophenyl)isoxazol-4-yl)methoxy)piperidin-1-yl)-1-methyl-1H-indole-3-carboxylic acid], in data set [1], the “Solubility in phosphate buffer (in words)” value was “low solubility”. Moreover, the “Concentration of Compound I” value amounted to 86 ng/mL in data set [1] (15 min); 166 ng/mL in data set [1] (30 min); 172 ng/mL in data set [1] (60 min); 188 ng/mL in data set [1] (120 min); 166 ng/mL in data set [1] (4 hrs); 207 ng/mL in data set [1] (8 hrs). Also, the “Concentration of Compound I” value in data set [1] (24 hrs) was found to be 250 ng/mL. Besides, the Kp in data set [2] is roughly 20. Also, in data set [3], the “Aqueous solubility (in words)” value was “low aqueous solubility”. Besides, in data set [3], the BCS class result is reported as “BCS class II”. In addition, the Safety and tolerability entry in data set [4] was “safe and well tolerated”.
